Where a name gives a salt, the structure may show the parent alone.
Columns and labels:
Bromodomain BRD2 (1-473) = target: T1, Bromodomain BRD2 (1-473) (Homo sapiens, UniProt P25440); assay: Time Resolved Fluorescence Resonance Energy Transfer (TR-FRET) binding assay, BRD2; details: BRD2 100 nM, acetylated histone peptide 300 nM
T1 construct: Recombinant Human Bromodomains (BRD2 (1-473), BRD3 (1-435) and BRD4 (1-477)); made in house; host or cells: E. coli (pET15b vector)
Experimental: (§1) The binding of the compounds of formula (I) to Bromodomains BRD2, BRD3 and BRD4 was assessed using a time resolved fluorescent resonance energy transfer binding assay, that measures the binding of an acetylated histone peptide to the bromodomain protein.
(§2) The bromodomain protein, histone peptide and a variable concentration of test compound are incubated together to reach thermodynamic equilibrium.
(§3) • H-Ser-Gly-Arg-Gly-Lys(Ac)-Gly-Gly-Lys(Ac)-Gly-Leu-Gly-Lys(Ac)-Gly-Gly-Ala-Lys(Ac)-Arg-His-Gly-Ser-Gly-Ser-Lys(Biotin)-OH. 3TFA
(§4) Protein Production: Recombinant Human Bromodomains (BRD2 (1-473), BRD3 (1-435) and BRD4 (1-477)) were expressed in E. coli cells (in pET15b vector) with a six-His tag at the N-terminal. The His-tagged Bromodomain was extracted from E. coli cells using sonication and purified using a nickel sepharose 6FF column, the proteins were washed and then eluted with 50 mM Tris-Hcl pH8.0. 300 mM NaCl, 1 mM […] and 20 mM Imidazole. Further purification was performed by affinity chromatography on a HisTRAP HP column, eluting with a linear 0-500 mM sodium chloride gradient, over 20 column volumes. Final purification was completed by Superdex 200 prep grade size exclusion column. Purified protein was stored at −80 C in 20 mM HEPES pH 7.5 and 100 mM NaCl. Protein identity was confirmed by peptide mass fingerprinting and predicted molecular weight confirmed by mass spectrometry.
(§5) Protocol for Bromodomain BRD2, 3 and 4 Assays: All assay components were dissolved in buffer composition of 50 mM HEPES pH7.4, 50 mM NaCl and 0.5 mM CHAPS. The final concentration of bromodomain proteins were 100 nM and the histone peptide was 300 nM, these components are premixed and allowed to equilibrate for 1 hour in the dark. 8 μl of this reaction mixture was added to all wells containing 50 nl of various concentrations of test compound or DMSO vehicle (0.5% final) in Greiner 384 well black low volume microtitre plates and incubated in dark for 60 mins at room temperature. 2 μl of detection mixture containing anti-6his XL665 labeled antibody and streptavidin labeled with europium cryptate was added to all wells and a further dark incubation of at least 30 mins was performed. Plates were then read on the Envision platereader, (λex=317 nm, donor λEM=615 nm; acceptor λEM=665 nm; Dichroic LANCE dual). Time resolved fluorescent intensity measurements were made at both emission wavelengths and the ratio of acceptor/donor was calculated and used for data analysis. All data was normalized to the mean of 16 high and 16 low control wells on each plate. A four parameter curve fit of the following form was then applied: y=a+((b−a)/(1+(10^x/10^c)^d)
(§6) Where ‘a’ is the minimum, ‘b’ is the Hill slope, ‘c’ is the pIC50 and ‘d’ is the maximum.

Bromodomain BRD3 (1-435) = target: T2, Bromodomain BRD3 (1-435) (Homo sapiens, UniProt Q15059); assay: Time Resolved Fluorescence Resonance Energy Transfer (TR-FRET) binding assay, BRD3; details: BRD3 100 nM, acetylated histone peptide 300 nM
T2 construct: Recombinant Human Bromodomains (BRD2 (1-473), BRD3 (1-435) and BRD4 (1-477)); made in house; host or cells: E. coli (pET15b vector)
Experimental: as §1, §2, §3, §4, §5, §6

Bromodomain BRD4 (1-477) = target: T3, Bromodomain BRD4 (1-477) (Homo sapiens, UniProt O60885); assay: Time Resolved Fluorescence Resonance Energy Transfer (TR-FRET) binding assay, BRD4; details: BRD4 100 nM, acetylated histone peptide 300 nM
T3 construct: Recombinant Human Bromodomains (BRD2 (1-473), BRD3 (1-435) and BRD4 (1-477)); made in house; host or cells: E. coli (pET15b vector)
Experimental: as §1, §2, §3, §4, §5, §6

[1] = test system: LPS induced IL-6 secretion from whole blood; assay: Measurement of LPS induced IL-6 secretion from whole blood; type: cell-based; details: LPS 200 ng/ml, 24 hours, IL-6 by immunoassay
Experimental: Activation of monocytic cells by agonists of toll-like receptors such as bacterial lipopolysaccharide (LPS) results in production of key inflammatory mediators including IL-6. Such pathways are widely considered to be central to the pathophysiology of a range of auto-immune and inflammatory disorders.
Compounds to be tested are diluted to give a range of appropriate concentrations of which 1 μl of the diluted stocks is added to a 96 well plate. Following addition of whole blood (130 μl) the plates are incubated at 37 degrees (5% CO2) for 30 min before the addition of 10 μl of 2.8 ug/ml LPS, diluted in complete RPMI 1640 (final concentration=200 ng/ml), to give a total volume of 140 ul per well. After further incubation for 24 hours at 37 degrees, 140 μl of PBS are added to each well. The plates are sealed, shaken for 10 minutes and then centrifuged (2500 rpm×10 min). 100 μl of the supernatant are removed and IL-6 levels assayed by immunoassay (typically by MesoScale Discovery technology) either immediately or following storage at −20 degrees. Concentration response curves for each compound was generated from the data and an IC50 value was calculated.

T1 sequence (P25440 1-473): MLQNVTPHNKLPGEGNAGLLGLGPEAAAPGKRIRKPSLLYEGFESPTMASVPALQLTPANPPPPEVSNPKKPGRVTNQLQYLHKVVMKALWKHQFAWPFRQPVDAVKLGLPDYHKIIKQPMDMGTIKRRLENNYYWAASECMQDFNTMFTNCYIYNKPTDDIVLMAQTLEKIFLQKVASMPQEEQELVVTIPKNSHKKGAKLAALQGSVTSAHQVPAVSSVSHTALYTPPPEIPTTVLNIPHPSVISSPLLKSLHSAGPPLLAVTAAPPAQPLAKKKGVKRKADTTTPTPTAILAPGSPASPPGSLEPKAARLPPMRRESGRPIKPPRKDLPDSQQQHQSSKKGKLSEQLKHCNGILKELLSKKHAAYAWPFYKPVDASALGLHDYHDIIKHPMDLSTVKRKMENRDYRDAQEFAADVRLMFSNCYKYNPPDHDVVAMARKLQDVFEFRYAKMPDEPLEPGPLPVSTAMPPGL
T2 sequence (Q15059 1-435): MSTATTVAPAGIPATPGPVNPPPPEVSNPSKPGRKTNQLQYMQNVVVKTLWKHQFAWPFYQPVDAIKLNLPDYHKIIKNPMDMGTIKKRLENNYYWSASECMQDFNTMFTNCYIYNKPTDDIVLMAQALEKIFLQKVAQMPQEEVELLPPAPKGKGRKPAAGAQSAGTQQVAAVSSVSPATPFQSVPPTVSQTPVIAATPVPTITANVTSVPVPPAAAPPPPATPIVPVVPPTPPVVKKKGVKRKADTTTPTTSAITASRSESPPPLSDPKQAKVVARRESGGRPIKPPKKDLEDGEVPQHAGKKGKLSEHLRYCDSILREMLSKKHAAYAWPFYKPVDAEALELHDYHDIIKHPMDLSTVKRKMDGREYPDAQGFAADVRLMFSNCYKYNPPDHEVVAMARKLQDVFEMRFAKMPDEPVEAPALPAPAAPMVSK

Structure (SMILES)	IC50 (Bromodomain BRD2 (1-473)) [nM]	IC50 (Bromodomain BRD3 (1-435)) [nM]	IC50 (Bromodomain BRD4 (1-477)) [nM]	IC50 [1] [nM]
CC(=O)N1c2ccc(-c3ccc(C(=O)OCCN(C)C)cc3)cc2[C@H](Nc2ccc(Cl)cc2)C[C@@H]1C [Example 1, 2-(Dimethylamino)ethyl 4-((2S,4R)-1-acetyl-4-((4-chlorophenyl)amino)-2-methyl-1,2,3,4-tetrahydroquinolin-6-yl)benzoate hydrochloride]	63.1 to 501	63.1 to 501	63.1 to 501	200 to 3160
CC(=O)N1c2ccc(-c3ccc(C(=O)OCCN(C)C)cn3)cc2[C@H](Nc2ccc(C#N)cn2)C[C@@H]1C [Example 6, 2-(Dimethylamino)ethyl 6-((2S,4R)-1-acetyl-4-((5-cyanopyridin-2-yl)amino)-2-methyl-1,2,3,4-tetrahydroquinolin-6-yl)nicotinate]	63.1 to 501	63.1 to 501	63.1 to 501	200 to 3160
CC(=O)N1c2ccc(-c3ccc(C(=O)OCC[N+](C)(C)C)cc3)cc2[C@H](Nc2ccc(Cl)cc2)C[C@@H]1C [Example 2, 2-((4-((2S,4R)-1-Acetyl-4-((4-chlorophenyl)amino)-2-methyl-1,2,3,4-tetrahydroquinolin-6-yl)benzoyl)oxy)-N,N,N-trimethylethanaminium, formate]	63.1 to 501	63.1 to 501	63.1 to 501	200 to 3160
CC(=O)N1c2ccc(-c3ccc(C(=O)OCCN(C)C)cc3)cc2[C@H](NC(=O)OC(C)C)C[C@@H]1C [Example 8, 2-(Dimethylamino)ethyl 4-((2S,4R)-1-acetyl-4-((isopropoxycarbonyl)amino)-2-methyl-1,2,3,4-tetrahydroquinolin-6-yl)benzoate]	63.1 to 501	63.1 to 501	63.1 to 501	200 to 3160
CC(=O)N1c2ccc(-c3ccc(C(=O)OCCC[N+](C)(C)C)cc3)cc2[C@H](Nc2ccc(Cl)cc2)C[C@@H]1C [Example 3, 3-((4-((2S,4R)-1-Acetyl-4-((4-chlorophenyl)amino)-2-methyl-1,2,3,4-tetrahydroquinolin-6-yl)benzoyl)oxy)-N,N,N-trimethylpropan-1-aminium, formate]	63.1 to 501	63.1 to 501	63.1 to 501	200 to 3160
CC(=O)N1c2ccc(-c3ccc(C(=O)OCCCN(C)C)cn3)cc2[C@H](Nc2ccc(C#N)cn2)C[C@@H]1C [Example 5, 3-(Dimethylamino)propyl 6-((2S,4R)-1-acetyl-4-((5-cyanopyridin-2-yl)amino)-2-methyl-1,2,3,4-tetrahydroquinolin-6-yl)nicotinate]	63.1 to 501	63.1 to 501	63.1 to 501	200 to 3160
CC(=O)N1c2ccc(-c3ccc(C(=O)OCCCN(C)C)cc3)cc2[C@H](NC(=O)OC(C)C)C[C@@H]1C [Example 7, 3-(Dimethylamino)propyl 4-((2S,4R)-1-acetyl-4-((isopropoxycarbonyl)amino)-2-methyl-1,2,3,4-tetrahydroquinolin-6-yl)benzoate]	63.1 to 501	63.1 to 501	63.1 to 501	200 to 3160
CC(=O)N1c2ccc(-c3ccc(C(=O)OCCCN(C)C)cc3)cc2[C@H](Nc2ccc(Cl)cc2)C[C@@H]1C [Example 4, 3-(Dimethylamino)propyl 4-((2S,4R)-1-acetyl-4-((4-chlorophenyl)amino)-2-methyl-1,2,3,4-tetrahydroquinolin-6-yl)benzoate]	63.1 to 501	63.1 to 501	63.1 to 501	

Source: US9029395B2, “Tetrahydroquinoline derivatives useful as bromodomain inhibitors” (GlaxoSmithKline LLC, priority 2011, dated 2015)
